Measurements taken from US10045983B2, “Heteroaryl pyridone and aza-pyrodine compounds” (Genentech, Inc., priority 2011, dated 2018).
Where two headings read alike, the source gives them in different places.

Assay: CD69 Whole Blood Assay (CD69 Hu Blood FACS)
Assay type: cell-based, human
Details: Lymphocyte, human whole blood, anti-IgM activated B lymphocytes, FACS, IC70
Summary of the method: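 Compounds tested for blocking B-cell CD69 induction by flow cytometry in human whole blood, with activation via anti-human IgM goat F(ab′)2 crosslinking of surface IgM.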

[1] = Table 2 (unit inferred), read-out: CD69 Hu Blood FACS (IC70)
[2] = Table 1, read-out: CD69 Hu Blood FACS IC70

| SMILES | IC70 [1] [nM] | IC70 [2] [nM] |
| --- | --- | --- |
| COCc1cc(Nc2cc(-c3ccnc(N4CCc5c(cc6n5CCCC6)C4=O)c3CO)cn(C)c2=O)nn1C [Example 336, 2-[3-(hydroxymethyl)-4-[5-[[5-(methoxymethyl)-1-methyl-pyrazol-3-yl]amino]-1-methyl-6-oxo-3-pyridyl]-2-pyridyl]-3,4,6,7,8,9-hexahydropyrido[3,4-b]indolizin-1-one] | 330 | – |
| Cn1nc(-c2ccnc(N3CCn4c(cc5c4CCCC5)C3=O)c2CO)cc(Nc2cc3n(n2)CCOC3)c1=O [Example 132, 2-(4-(5-(6,7-Dihydro-4H-pyrazolo[5,1-c][1,4]oxazin-2-ylamino)-1-methyl-6-oxo-1,6-dihydropyridazin-3-yl)-3-(hydroxymethyl)pyridin-2-yl)-3,4,6,7,8,9-hexahydropyrazino[1,2-a]indol-1(2H)-one] | – | 263 |
| C[C@H]1CN(C2COC2)CCN1c1ccc(Nc2cc(-c3ccnc(N4CCc5c(c(F)c6n5CCCC6)C4=O)c3CO)cn(C)c2=O)nc1 [Example 237, 10-fluoro-2-[3-(hydroxymethyl)-4-[1-methyl-5-[[5-[(2S)-2-methyl-4-(oxetan-3-yl)piperazin-1-yl]-2-pyridyl]amino]-6-oxo-3-pyridyl]-2-pyridyl]-3,4,6,7,8,9-hexahydropyrido[3,4-b]indolizin-1-one] | 46.1 | – |
| CN1CCn2nc(Nc3cc(-c4ccnc(N5CCn6c7c(c(F)c6C5=O)CCCC7)c4CO)cn(C)c3=O)cc2C1 [Example 135, 10-Fluoro-2-(3-(hydroxymethyl)-4-(1-methyl-5-(5-methyl-4,5,6,7-tetrahydropyrazolo[1,5-a]pyrazin-2-ylamino)-6-oxo-1,6-dihydropyridin-3-yl)pyridin-2-yl)-3,4,6,7,8,9-hexahydropyrazino[1,2-a]indol-1(2H)-one] | – | 107 |
| Cc1nc(Nc2cc(-c3ccnc(N4CCn5c(cc6c5CC(C)(C)C6)C4=O)c3CO)cn(C)c2=O)cn1C [Example 337, 3-[4-[5-[(1,2-dimethylimidazol-4-yl)amino]-1-methyl-6-oxo-3-pyridyl]-3-(hydroxymethyl)-2-pyridyl]-7,7-dimethyl-1,2,6,8-tetrahydrocyclopenta[3,4]pyrrolo[3,5-b]pyrazin-4-one] | 613 | – |
| Cc1cc(Nc2cc(-c3ccnc(N4CCn5c(cc6c5CC(C)(C)C6)C4=O)c3CO)cn(C)c2=O)nn1C [Example 218, 3-[4-[5-[(1,5-dimethylpyrazol-3-yl)amino]-1-methyl-6-oxo-3-pyridyl]-3-(hydroxymethyl)-2-pyridyl]-7,7-dimethyl-1,2,6,8-tetrahydrocyclopenta[3,4]pyrrolo[3,5-b]pyrazin-4-one] | 74.1 | – |
| COCCN1CCN(c2ccc(Nc3cc(-c4ccnc(N5CCn6c(cc7c6CC(C)(C)C7)C5=O)c4CO)cn(C)c3=O)nc2)[C@@H](C)C1 [Example 340, 3-[3-(hydroxymethyl)-4-[5-[[5-[(2S)-4-(2-methoxyethyl)-2-methyl-piperazin-1-yl]-2-pyridyl]amino]-1-methyl-6-oxo-3-pyridyl]-2-pyridyl]-7,7-dimethyl-1,2,6,8-tetrahydrocyclopenta[3,4]pyrrolo[3,5-b]pyrazin-4-one] | 20.7 | – |
| CNC(=O)c1c(-c2cc(Nc3ccc(N4CCN(C5COC5)C[C@@H]4C)cn3)c(=O)n(C)c2)ccnc1N1CCn2c(cc3c2CC(C)(C)C3)C1=O [Example 211, 2-(7,7-dimethyl-4-oxo-1,2,6,8-tetrahydrocyclopenta[3,4]pyrrolo[3,5-b]pyrazin-3-yl)-N-methyl-4-[1-methyl-5-[[5-[(2S)-2-methyl-4-(oxetan-3-yl)piperazin-1-yl]-2-pyridyl]amino]-6-oxo-3-pyridyl]pyridine-3-carboxamide] | 2100 | – |
| COCCN1CCn2nc(Nc3cc(-c4ccnc(-n5ncc6c7c(sc6c5=O)CC(C)(C)C7)c4CO)cn(C)c3=O)cc2C1 [Example 304, 3-[3-(hydroxymethyl)-4-[5-[[5-(2-methoxyethyl)-6,7-dihydro-4H-pyrazolo[1,5-a]pyrazin-2-yl]amino]-1-methyl-6-oxo-3-pyridyl]-2-pyridyl]-7,7-dimethyl-6,8-dihydrocyclopenta[3,4]thieno[1,3-d]pyridazin-4-one] | 40 | – |
| Cc1cc(Nc2cc(-c3ccnc(N4CCn5c(cc6c5CC(C)(C)C6)C4=O)c3CO)cn(C)c2=O)nc(C)n1 [Example 173, 2-[5-(2,6-Dimethyl-pyrimidin-4-ylamino)-3′-hydroxymethyl-1-methyl-6-oxo-1,6-dihydro-[3,4′]bipyridinyl-2′-yl]-7,7-dimethyl-3,4,7,8-tetrahydro-2H,6H-cyclopenta[4,5]pyrrolo[1,2-a]pyrazin-1-one] | – | 1000 |
| Cn1nc(-c2ccnc(N3CCn4c5c(c(F)c4C3=O)CCCC5)c2CO)cc(Nc2ccncn2)c1=O [Example 263, 10-fluoro-2-[3-(hydroxymethyl)-4-[1-methyl-6-oxo-5-(pyrimidin-4-ylamino)pyridazin-3-yl]-2-pyridyl]-3,4,6,7,8,9-hexahydropyrazino[1,2-a]indol-1-one] | 2200 | – |
| Cn1cc(-c2ccnc(N3CCn4c(cc5c4CC(C)(C)C5)C3=O)c2CO)cc(Nc2ccc(N3CCN(C4COC4)CC3)cn2)c1=O [Example 108, 2-(3-(Hydroxymethyl)-4-(1-methyl-5-(5-(4-(oxetan-3-yl)piperazin-1-yl)pyridin-2-ylamino)-6-oxo-1,6-dihydropyridin-3-yl)pyridin-2-yl)-4,4-dimethyl-1,10-diazatricyclo[6.4.0.0^2,6]dodeca-2(6),7-dien-9-one] | – | 31.9 |
| Cn1cc(-c2ccnc(N3CCn4c(cc5c4CC(C)(C)C5)C3=O)c2CO)cc(Nc2ccc(C3CN(C4COC4)C3)cn2)c1=O [Example 272, 3-[3-(hydroxymethyl)-4-[1-methyl-5-[[5-[1-(oxetan-3-yl)azetidin-3-yl]-2-pyridyl]amino]-6-oxo-3-pyridyl]-2-pyridyl]-7,7-dimethyl-1,2,6,8-tetrahydrocyclopenta[3,4]pyrrolo[3,5-b]pyrazin-4-one] | 34 | – |
| CCN1CCn2nc(Nc3cc(-c4ccnc(N5CCn6c(cc7c6CCCC7)C5=O)c4CO)cn(C)c3=O)cc2C1 [Example 177, 2-(4-(5-(5-ethyl-4,5,6,7-tetrahydropyrazolo[1,5-a]pyrazin-2-ylamino)-1-methyl-6-oxo-1,6-dihydropyridin-3-yl)-3-(hydroxymethyl)pyridin-2-yl)-3,4,6,7,8,9-hexahydropyrazino[1,2-a]indol-1(2H)-one] | – | 107 |
| C[C@@H]1COC[C@H](C)N1C(=O)c1ccc(Nc2cc(-c3ccnc(N4CCn5c(cc6c5CC(C)(C)C6)C4=O)c3CO)cn(C)c2=O)nc1 [Example 320, 3-[4-[5-[[5-[(3S,5R)-3,5-dimethylmorpholine-4-carbonyl]-2-pyridyl]amino]-1-methyl-6-oxo-3-pyridyl]-3-(hydroxymethyl)-2-pyridyl]-7,7-dimethyl-1,2,6,8-tetrahydrocyclopenta[3,4]pyrrolo[3,5-b]pyrazin-4-one] | 46.8 | – |
| Cc1cnc(Nc2cc(-c3ccnc(N4CCn5c(cc6c5CC(C)(C)C6)C4=O)c3CO)cn(C)c2=O)cn1 [Example 274, 3-[3-(hydroxymethyl)-4-[1-methyl-5-[(5-methylpyrazin-2-yl)amino]-6-oxo-3-pyridyl]-2-pyridyl]-7,7-dimethyl-1,2,6,8-tetrahydrocyclopenta[3,4]pyrrolo[3,5-b]pyrazin-4-one] | 466 | – |
